The text below walks through data of paper PMC3419191, “Identification of Novel Piperazinylquinoxaline Derivatives as Potent Phosphoinositide 3-Kinase (PI3K) Inhibitors” (PLoS ONE, 2012).

For data set [1], the system named is PC3 cells. Kind of data set: Cell cycle arrest in PC3 cells by flow cytometry. It counts as cell-based, human. The following applies: 24 h; for cell cycle arrest: 2 and 4 µM. Here is the method:
Moreover, flow cytometric analysis was performed to determine whether target compounds could induce cell cycle arrest in PC3 cells. GDC0941 was used as the positive control. PC3 cells were treated with compound 41 and GDC0941 in two different concentrations (2 and 4 µM) for 24 h, the results are presented as Figure 6.
Figure 6 Cell cycle arrest test of compound 41 and GDC0941 in PC3 cells. Vertical axes stand for the counts of relative number of PC3 cells; horizontal axes stand for the relative fluorescence light intensity measured as pulse-area (FL2-A). TEXT PRINTED IN THE PICTURE: Compound 41: G1: 53.77 % (2μM); G2: 16.76 % (2μM); S: 29.48 % (2μM); G1: 54.38 % (4μM); G2: 15.87 % (4μM); S: 29.75 % (4μM) | GDC0941: G1: 63.66 % (2μM); G2: 21.86 % (2μM); S: 14.48 % (2μM); G1: 71.43 % (4μM); G2: 19.92 % (4μM); S: 8.65 % (4μM)
(§1) For flow cytometry analysis, PC3 cells were treated with DMSO, compound 41 and GDC0941 for 24 h. Cells were washed twice with PBS and fixed in 75% ethanol at −20°C. The cell pellet was resuspended in 100 µL of PBS containing […] RNase (Amerson, Solon, OH, USA), then incubated at 37°C for 0.5 h. After incubation, the cells were stained with 20 mL/L propidium iodide (PI, Sigma, St. Louis, MO, USA) at 4°C for 15 min. The fluorescence of cell was measured with FACSCalibur flow cytometer (Becton-Dickinson, Lincoln Park, NJ, USA).
(In general: In flow cytometry, cells or beads pass a laser one at a time.)

Data set [2] addresses T1, recombinant human PI3Kα (Homo sapiens, UniProt P42336).
T1 construct: purchased Echelon Biosciences (Salt Lake City, UT, USA) E-2000
Kind of data set: Competitive fluorescence polarization (FP) assay, inhibition of PI3Kα. In kind it is biochemical. The method, boiled down:
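50 ng enzyme with 10 µM diC8-PIP2 substrate and 50 µM ATP in 5 mM HEPES pH 7, 2.5 mM MgCl2, 10 mM DTT; inhibitors 3.2 nM–10 µM, 3 h at room temperature. Chelator quench, then PIP3-binding protein and fluorescent tracer added, 1 h dark equilibration, polarization read.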
(In fluorescence polarisation assays a small probe gives low polarisation when free and higher when bound to something large.)

The subject of data set [3] is PC3 cells. Briefly: Apoptosis assay in PC3 cells by flow cytometry (PI). In kind it is cell-based, human. The following applies: 24 h, control 1.71%. Here is the method: Piperazinylquinoxaline derivative 41 was further tested for its ability to induce apoptosis in PC3 cells. […] (Fig. 5). With an apoptotic percent of 1.71% of the control, the percent of apoptotic PC3 cells induced by compound 41 and GDC0941 in 5 µM after treatment of 24 h were 4.48% and 3.12%, respectively.
Figure 5 Apoptosis induction of compound 41 and GDC0941 in PC3 cells. After treatment with 41 and GDC0941 (5 or 10 µM) for 24 h, PC3 cells were harvested and detected of apoptosis by flow cytometry using PI apoptosis detection kit. Vertical axes stand for the counts of relative number of PC3 cells; horizontal axes stand for the relative fluorescence light intensity measured as pulse-area (FL2-A). TEXT PRINTED IN THE PICTURE: Compound 41: Apo:4.48% (5μM); Apo:32.83% (10μM) | GDC0941: Apo:3.12% (5μM); Apo:5.65% (10μM)
as §1

The subject of data set [4] is A549. Kind of data set: MTT assay, antiproliferative activity against A549 cells. As to conditions: Homo sapiens, 72 h, mean of at least two determinations. In kind it is cell-based. The method, boiled down: (§2)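 Cells grown in RPMI-1640 with 10% FBS at 37°C, 5% CO2, plated 24 h, then exposed to graded compound concentrations for 72 h. Viability read by MTT absorbance; IC50 is the concentration giving 50% absorbance inhibition versus untreated control.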

Data set [5] deals with PC3. Briefly: MTT assay, antiproliferative activity against PC3 cells. The following applies: Homo sapiens, PC-3, 72 h, mean of at least two determinations. It counts as cell-based. The procedure, abridged:
as §2
A general note: Formazan colour is commonly taken as a measure of viable cells.

Data set [6] deals with HCT116. Briefly: MTT assay, antiproliferative activity against HCT116 cells. It counts as cell-based. As to conditions: Homo sapiens, HCT-116, 72 h, mean of at least two determinations. The method, boiled down:
as §2

Molecules are shown by their SMILES.

T1 sequence (P42336 whole entry): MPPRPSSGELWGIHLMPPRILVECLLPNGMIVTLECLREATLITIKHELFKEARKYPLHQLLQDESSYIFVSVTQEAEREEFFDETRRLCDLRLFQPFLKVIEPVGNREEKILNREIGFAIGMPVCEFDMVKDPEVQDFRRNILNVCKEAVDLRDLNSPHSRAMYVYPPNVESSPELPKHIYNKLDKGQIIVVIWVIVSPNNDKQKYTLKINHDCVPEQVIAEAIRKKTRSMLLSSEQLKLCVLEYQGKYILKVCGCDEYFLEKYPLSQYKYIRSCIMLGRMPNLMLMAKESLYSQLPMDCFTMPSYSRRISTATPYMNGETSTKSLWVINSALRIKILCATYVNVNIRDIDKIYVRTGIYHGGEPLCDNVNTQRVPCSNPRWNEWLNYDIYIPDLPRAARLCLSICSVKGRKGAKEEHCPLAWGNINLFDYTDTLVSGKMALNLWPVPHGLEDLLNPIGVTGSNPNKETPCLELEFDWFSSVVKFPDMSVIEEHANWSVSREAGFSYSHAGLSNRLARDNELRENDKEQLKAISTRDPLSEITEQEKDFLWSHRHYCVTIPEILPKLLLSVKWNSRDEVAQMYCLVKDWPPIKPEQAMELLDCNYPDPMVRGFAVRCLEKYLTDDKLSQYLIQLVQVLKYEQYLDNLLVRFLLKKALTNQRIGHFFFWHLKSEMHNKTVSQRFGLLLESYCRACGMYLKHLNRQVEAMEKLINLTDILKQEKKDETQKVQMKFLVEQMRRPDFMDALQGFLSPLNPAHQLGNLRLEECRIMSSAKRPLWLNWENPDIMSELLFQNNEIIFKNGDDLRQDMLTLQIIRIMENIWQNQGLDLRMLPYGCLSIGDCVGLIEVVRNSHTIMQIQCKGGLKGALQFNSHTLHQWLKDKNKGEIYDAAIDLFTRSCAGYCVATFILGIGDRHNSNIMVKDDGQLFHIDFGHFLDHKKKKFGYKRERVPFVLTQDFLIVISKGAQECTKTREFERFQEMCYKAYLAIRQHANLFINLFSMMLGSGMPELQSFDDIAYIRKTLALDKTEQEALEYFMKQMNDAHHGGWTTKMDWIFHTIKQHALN
T1 sequence (P27986 whole entry partner): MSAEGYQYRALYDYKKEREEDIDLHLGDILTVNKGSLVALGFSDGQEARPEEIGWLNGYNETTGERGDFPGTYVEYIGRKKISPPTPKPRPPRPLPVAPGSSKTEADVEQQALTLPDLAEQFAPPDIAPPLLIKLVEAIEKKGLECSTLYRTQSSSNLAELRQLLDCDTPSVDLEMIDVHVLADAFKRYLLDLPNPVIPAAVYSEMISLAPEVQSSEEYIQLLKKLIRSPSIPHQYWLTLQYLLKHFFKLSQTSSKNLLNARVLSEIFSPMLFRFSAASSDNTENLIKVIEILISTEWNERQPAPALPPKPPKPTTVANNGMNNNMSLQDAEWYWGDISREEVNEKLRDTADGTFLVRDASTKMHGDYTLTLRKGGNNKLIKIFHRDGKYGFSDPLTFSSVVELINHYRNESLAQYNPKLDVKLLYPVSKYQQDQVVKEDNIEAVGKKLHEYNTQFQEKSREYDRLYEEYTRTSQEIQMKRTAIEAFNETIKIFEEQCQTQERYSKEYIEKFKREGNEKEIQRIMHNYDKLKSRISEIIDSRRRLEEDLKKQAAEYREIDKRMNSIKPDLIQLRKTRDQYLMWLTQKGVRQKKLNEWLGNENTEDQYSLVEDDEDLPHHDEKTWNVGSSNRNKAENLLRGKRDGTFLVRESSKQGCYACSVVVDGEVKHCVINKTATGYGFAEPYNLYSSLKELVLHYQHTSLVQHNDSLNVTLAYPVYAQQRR

Turning to `COc1ccc(S(=O)(=O)c2nc3ccccc3nc2N2CCN(S(C)(=O)=O)CC2)cc1` [Compound 41, 2-(4-(Methylsulfonyl)piperazin-1-yl)-3-(4-methoxyphenylfsulfonyl)quinoxaline], the melting point (commonly the temperature, or range, at which the solid turns liquid) is 177 to 179 °C. Besides, in data set [1] (2 µM), the “percent of cells in G1” value turned out to be 53.77%, the “percent of cells in G2” value is given as 16.76% and the “percent of cells in S” value is recorded as 29.48%. Moreover, in data set [1] (4 µM), the “percent of cells in G1” value is reported as 54.38%, the “percent of cells in G2” value is recorded as 15.87% and the “percent of cells in S” value is listed as 29.75%. Besides, the cell cycle arrest result in data set [1] is on record as “showed similar trend while the percent of cell in G1 phase was smaller”. The “Binding efficiency index (BEI)” value in data set [2] (BEI = pIC50 (M)/MW (kDa), PI3Kα) came out at 16.5. The half-inhibitory concentration (IC50) (commonly the concentration needed to halve the response being measured) in data set [2] (FP assay, 50 µM ATP, mean of at least two determinations) is 24 nM. Also, in data set [3] (5 µM), the “percent of apoptotic PC3 cells” value stood at 4.48%. Moreover, the “percent of apoptotic PC3 cells” value in data set [3] (10 µM) turned out to be 32.83%. This compound returned an IC50 in data set [4] of 1320 nM. The IC50 in data set [5] is 2210 nM. In data set [6], this compound came in with a half-maximal inhibitory concentration (IC50) of 550 nM.
Regarding `CS(=O)(=O)N1CCN(Cc2cc3nc(-c4cccc5[nH]ncc45)nc(N4CCOCC4)c3s2)CC1` [GDC0941, 2-(1H-Indazol-4-yl)-6-(4-methanesulfonyl-piperazin-1-ylmethyl)-4-morpholin-4-yl-thieno[3,2-d]pyrimidine, reference compound], in data set [1] (2 µM), the “percent of cells in G1” value was found to be 63.66%, the “percent of cells in G2” value worked out at 21.86% and the “percent of cells in S” value was 14.48%. In data set [1] (4 µM), the “percent of cells in G1” value came out at 71.43%, the “percent of cells in G2” value was determined as 19.92% and the “percent of cells in S” value is 8.65%. Also, the cell cycle arrest result in data set [1] is reported as “induced cell cycle arrest in G1 phase”. In data set [3] (5 µM), the “percent of apoptotic PC3 cells” value was found to be 3.12%. Further, the “percent of apoptotic PC3 cells” value in data set [3] (10 µM) turned out to be 5.65%.
